Measured values: paper PMC11047712, “Synergistic Antioxidant and Anti-Inflammatory Effects of Phenolic Acid-Conjugated Glutamine–Histidine–Glycine–Valine (QHGV) Peptides Derived from Oysters (Crassostrea talienwhanensis)” (Antioxidants, 2024)

Legend:
[1] = ABTS radical scavenging activity test; format: biochemical
Method: The ABTS radical cation solution was prepared by mixing 1 mL of a 14 mM ABTS solution and 1 mL of 4.9 mM potassium persulfate. The mixture reacted in the dark at room temperature for 16 h. The ABTS solution was diluted with PBS (1:50, v/v), and 190 μL of it reacted with 10 μL of the sample solution in a 96-well plate at room temperature for 5 min. The absorbance at 734 nm was measured using a SpectraMax iD3 microplate reader (Molecular Devices, San Jose, CA, USA), and the ABTS radical scavenging activity rate was calculated using the following equation:ABTS radical scavenging activity (%) = 1 − (absorbance of sample/absorbance of water) × 100

HaCaT cells = test: Cell viability (MTT assay) in HaCaT cells; format: cell-based, human; details: 0.032-500 µM, 24 h
Method: Cell viability was assessed using an MTT assay. HaCaT cells (1.0 × 10^4 cells/mL) were seeded in a 96-well plate and cultured for 24 h. Thereafter, the cells were treated with the peptide solution (0–500 µM) for 24 h. […] The MTT solution was prepared by dissolving it in phosphate-buffered saline (PBS) at a concentration of 5 mg/mL. 10 μL of the prepared MTT solution was added to each well, and the plate was incubated for 4 h. After removing the culture medium, 200 μL of dimethyl sulfoxide (DMSO) was added to each well to solubilize any deposited formazan. The absorbance at 560 nm was measured using an Epoch microplate Spectrophotometer (BioTek, Winooski, VT, USA).

[2] = test system: intracellular ROS in RAW 264.7 cells; test: LPS-induced intracellular ROS, DCFH-DA fluorescence, in RAW 264.7 cells; format: cell-based, murine; details: peptides and carnosine 500 μM pretreated 2 h, then LPS 0.1 μg/mL 24 h, n = 3
Method: RAW 264.7 cells (7.5 × 10^4 cells/mL) were seeded on sterile cover slips placed in the wells of a 12-well plate and cultured for 24 h. The cells were pretreated with peptide solutions (500 μM) and carnosine (500 μM) for 2 h and stimulated with LPS (0.1 μg/mL) for 24 h. Subsequently, they were treated with a 10 μM DCFH-DA solution for 30 min and washed with PBS. The washed cells were fixed with a 4% paraformaldehyde solution for 5 min, and intracellular ROS fluorescence was observed using a DMi8 inverted microscope (Leica, Wetzlar, Germany).

[3] = test system: inducible nitric oxide synthase (iNos) mRNA; test: iNos mRNA expression in LPS-induced RAW 264.7 cells (qRT-PCR); format: cell-based, murine; details: peptide 500 μM pretreated 2 h, LPS 0.1 μg/mL 24 h, normalized to Gapdh, n = 3
Method: (§1) The peptide and control groups were pretreated with 500 and 0 μM of the peptide solution, respectively, for 2 h, followed by stimulation with 0.1 μg/mL of LPS for 24 h. Total cellular RNA was isolated using the RNeasy Mini Kit (Qiagen, Santa Clara, CA, USA). Total RNA was used to synthesize complementary DNA (cDNA) using the PrimeScript™ 1st strand cDNA synthesis kit (TaKaRa, Kusatsu, Japan). […] The mRNA levels of iNos, Cox-2, and Col1a1 were normalized to that of Gapdh, which is a housekeeping gene. The mRNA levels were quantified using the 2^-ddCt method based on the Ct values.

[4] = test system: cyclooxygenase-2 (Cox-2) mRNA; test: Cox-2 mRNA expression in LPS-induced RAW 264.7 cells (qRT-PCR); format: cell-based, murine; details: peptide 500 μM pretreated 2 h, LPS 0.1 μg/mL 24 h, normalized to Gapdh, n = 3
Method: as §1

phospho-JNK = test: LPS-induced phosphorylation of JNK in RAW 264.7 cells (Western blot); format: cell-based, murine; details: peptide 500 µM 2 h, LPS 0.1 μg/mL 15 min, densitometry relative to JNK, n = 3
Method: HaCaT (3.0 × 10^5 cells/well) and RAW 264.7 (1.5 × 10^5 cells/well) cells were seeded in the wells of a six-well plate. […] The cells were then washed with cold PBS and lysed in a cold lysis buffer. Cell debris was removed after centrifugation at 12,000× g for 30 min at 4 °C. Protein concentration was determined using the bicinchoninic acid (BCA) protein assay. […] The membranes were blocked with 5% skimmed milk in Tris-buffered saline–Tween (TBS-T) at room temperature for 1 h. After washing, the membranes were incubated overnight in respective primary antibody solutions (anti-phospho-ERK, anti-phospho-JNK, anti-phospho-p38, anti-collagen I, anti-GAPDH or anti-β-actin antibodies) at 4 °C. The membranes were washed with TBS-T and incubated with a horseradish peroxidase-conjugated secondary antibody solution for 1 h at room temperature. They were washed again with TBS-T and PBS and developed using an enhanced chemiluminescence reagent. Images of the immunoblots were scanned with an iBright™ CL1500 Imaging System (Thermo Fisher Scientific, Waltham, MA, USA). The band intensities of phospho-ERK, phospho-JNK, phospho-p38, and collagen I proteins were quantified by densitometric analysis using the ImageJ software 1.8.0 (National Institutes of Health, NIH, Bethesda, MD, USA). […] The levels of collagen I were normalized to those of GAPDH. Images of raw Western blots are shown in the Supplementary Data.

[5] = test system: collagen type I alpha 1 chain (Col1a1) mRNA; test: Collagen I (Col1a1) mRNA level in HaCaT cells (RT-PCR); format: cell-based, human; details: peptide 500 μM, normalized to Gapdh, n = 3
Method: The peptide and control groups were pretreated with 500 and 0 μM of the peptide solution, respectively, for 2 h, followed by stimulation with 0.1 μg/mL of LPS for 24 h. Total cellular RNA was isolated using the RNeasy Mini Kit (Qiagen, Santa Clara, CA, USA). Total RNA was used to synthesize complementary DNA (cDNA) using the PrimeScript™ 1st strand cDNA synthesis kit (TaKaRa, Kusatsu, Japan). The sequences of oligonucleotide primers for amplifying inducible nitric oxide synthase (iNos), cyclooxygenase-2 (Cox-2), and collagen type I alpha 1 chain (Col1a1) synthesized from Bioneer (Daejeon, Republic of Korea) and glyceraldehyde-3-phosphate dehydrogenase (Gapdh) synthesized from Macrogen (Seoul, Republic of Korea) are listed in Table 1. […] The mRNA levels of iNos, Cox-2, and Col1a1 were normalized to that of Gapdh, which is a housekeeping gene. The mRNA levels were quantified using the 2^-ddCt method based on the Ct values.

[6] = test system: collagen I (COL1A1) protein; test: Collagen I (COL1A1) protein level in HaCaT cells (Western blot); format: cell-based, human; details: peptide 500 µM, 24 h, Western blot densitometry normalized to GAPDH, n = 3
Method: HaCaT (3.0 × 10^5 cells/well) and RAW 264.7 (1.5 × 10^5 cells/well) cells were seeded in the wells of a six-well plate. HaCaT and RAW 264.7 cells were treated with the peptide solutions (500 µM) for 24 and 2 h, respectively, and then stimulated with LPS (0.1 μg/mL) for 15 min. The cells were then washed with cold PBS and lysed in a cold lysis buffer. Cell debris was removed after centrifugation at 12,000× g for 30 min at 4 °C. Protein concentration was determined using the bicinchoninic acid (BCA) protein assay. The four-times-concentrated protein-denaturing buffer (1.25 M Tris-HCl (pH 6.8), glycerol, SDS, 2-mercaptoethanol, and 0.4% bromophenol blue) was added to the cell lysate and the mixture was boiled at 100 °C for 5 min. Proteins were separated by electrophoresis on 10% (for MAPKs) or 12% (for collagen) sodium dodecyl sulfate-polyacrylamide gel and electroblotted onto polyvinylidene fluoride membranes. The membranes were blocked with 5% skimmed milk in Tris-buffered saline–Tween (TBS-T) at room temperature for 1 h. After washing, the membranes were incubated overnight in respective primary antibody solutions (anti-phospho-ERK, anti-phospho-JNK, anti-phospho-p38, anti-collagen I, anti-GAPDH or anti-β-actin antibodies) at 4 °C. The membranes were washed with TBS-T and incubated with a horseradish peroxidase-conjugated secondary antibody solution for 1 h at room temperature. They were washed again with TBS-T and PBS and developed using an enhanced chemiluminescence reagent. Images of the immunoblots were scanned with an iBright™ CL1500 Imaging System (Thermo Fisher Scientific, Waltham, MA, USA). The band intensities of phospho-ERK, phospho-JNK, phospho-p38, and collagen I proteins were quantified by densitometric analysis using the ImageJ software 1.8.0 (National Institutes of Health, NIH, Bethesda, MD, USA). To normalize for protein loading, antibodies against β-actin and GAPDH were used, and phospho-ERK 1/2, phospho-JNK, and phospho-p38 phosphorylation levels were expressed relative to those of […]. The levels of collagen I were normalized to those of GAPDH. Images of raw Western blots are shown in the Supplementary Data.

For galloyl-QHGV [Ga-QHGV], the “ABTS radical scavenging activity” value ([1]; 0.01 mM, 5 min at room temperature, absorbance 734 nm, n = 3) was 74%, the “Anti-oxidant Rank (ABTS radical scavenging activity rank)” value ([1]; Table S1, rank by IC50, 1 = most active) was 2 and the IC50 ([1]; Table S1, tested 0.000001-1 mM, 5 min at room temperature, absorbance 734 nm, calculated by GraphPad Prism 5, unit inferred) was 4.58 µM. For the same substance, the “cytotoxicity (in words)” value (HaCaT cells) was “no cytotoxicity”, the “decrease of intracellular ROS levels compared to the LPS-treated group” value [2] was “reduced LPS-induced ROS levels to the greatest extent” and the “reduction of LPS-induced iNos mRNA level” value [3] was 60%. For the same substance, the “reduction of LPS-induced Cox-2 mRNA level” value [4] was 22%, the “decrease of p-JNK level” value (phospho-JNK) was 18% and the “increase of collagen I mRNA level compared with the negative control group” value [5] was 140%. The “increase of collagen I protein level” value [6] was 354%.
